Results as given in US20220378756A1, “ACTIVATING PYRUVATE KINASE R” (FORMA Therapeutics, Inc., priority 2019, published 2022).

Tested on: 2,3-DPG, ATP and p50 in blood
Assay: Phase 1 SAD/MAD, healthy volunteers: pharmacodynamics
Type: in vivo, human
Conditions: for median reduction in the concentration of 2,3-DPG, relative to baseline: HV MAD; for Median Percentage Change in 2,3-DPG Levels / Median Percentage Change in ATP Levels (Day 14) / Mean Absolute Change in p50 (mmHg) (Day 14): HV; for Mean Absolute Change in p50 (mmHg) (Day 14): vs baseline
Excerpt: This is a first-in-human (FIH), Phase 1 study of Compound 1 that will characterize the safety, PK, and PD of Compound 1 after a single dose and after repeated dosing first in healthy adult volunteers and then in adolescents or adults with sickle cell disease. Initially, a dose range of Compound 1 in single ascending dose (SAD) escalation cohorts will be explored in healthy subjects. Enrollment of healthy subjects into 2-week multiple ascending dose (MAD) escalation cohorts will be initiated once the safety and PK from at least two SAD cohorts is available to inform the doses for the 2-week MAD portion of the study. The MAD cohorts will then run in parallel to the single dose cohorts. A single dose cohort is planned to understand food effects (FE) on the PK of Compound 1. […] Multiple dose studies in SCD subjects will then be initiated upon completion of MAD studies in healthy volunteers. Compound 1 will be administered in 25 mg and 100 mg tablets delivered orally.
In this study, SAD/MAD cohorts are randomized (3 to 1) to receive Compound 1 or placebo (P). Compound 1 was evaluated first in 4 healthy SAD cohorts and 4 healthy MAD (14-day dosing period) cohorts. Based on the safety, and PK/PD profile from HS, Compound 1 is then evaluated in 1 SCD SAD cohort and 2 SCD MAD cohorts. Specifically, based on the safety and pharmacokinetic/pharmacodynamics (PK/PD) profile in healthy volunteer studies, Compound 1 is evaluated in patients (pts) with SCD, first in a single dose (SD or SAD) cohort and then in multiple-dose (MD or MAD) cohorts (14-day and 12-week). Safety assessments include AEs, vital signs, ECGs and laboratory parameters. PK/PD blood sampling was performed on Day 1 (SAD/MAD) and Day 14 (MAD) and up to 72 h after the last dose and at the end-of-study visit. PD parameters included 2,3-DPG, ATP, and p50 in all cohorts with additional PD studies (including oxygen scan) performed only in the SCD cohorts. PD parameters included 2,3-DPG, ATP, p50, RBC deformability with controlled deoxygenation and reoxygenation (Lorrca® oxygen scan) and varying osmolality (Lorrca® osmoscan)). To maintain study blind, pt identifiers were removed when needed.
Four healthy SAD cohorts were evaluated at doses of 200, 400, 700, and 1000 mg, and four healthy MAD cohorts received 200 to 600 mg total daily doses for 14 days at QD or BID dosing (100 mg BID, 200 mg BID, 300 mg BID, and 400 mg QD). In the food effect (FE) cohort, 10 healthy subjects received 200 mg of Compound 1 QD with and without food.
In the SAD cohorts, the subjects' blood 2,3-DPG levels were measured periodically after dosing by a qualified LC-MS/MS method for the quantitation of 2,3-DPG in blood. Decreased 2,3-DPG blood levels were observed 6 hours following a single dose of Compound 1 at all dose levels (earlier timepoints were not collected). Maximum decreases in 2,3-DPG levels generally occurred ˜24 hours after the first dose with the reduction sustained ˜48-72 hr postdose. Table 16 reports the median percentage change in 2,3-DPG blood levels, relative to baseline, measured over time in healthy volunteers after a single dose of Compound 1 (200 mg, 400 mg, 700 mg, or 1000 mg) or placebo. Accordingly, the median reduction in the concentration of 2,3-DPG, relative to baseline, was at least about […] at all dose levels tested 24 hours after administration of the single dose.
In the MAD cohorts, the subjects' blood 2,3-DPG levels were measured periodically after dosing by a qualified LC-MS/MS method for the quantitation of 2,3-DPG in blood. The maximum decrease in 2,3-DPG on Day 14 was 55% from baseline (median). […] Table 18 reports the median percentage change in 2,3-DPG blood levels, relative to baseline, measured over time after the first dose on days 1 and 14 in healthy volunteers who received daily doses of Compound 1 (100 mg BID, 200 mg BID, or 300 mg BID) or placebo for 14 days. […]

[1] = 100 mg BID, Day 14, 0 h after first daily dose
[2] = 100 mg BID, Day 14, 6 h after first daily dose
[3] = 100 mg BID, Day 14, 8 h after first daily dose
[4] = 100 mg BID, Day 14, 12 h after first daily dose
[5] = 100 mg BID, Day 14, 16 h after first daily dose
[6] = 100 mg BID, Day 14, 24 h after first daily dose
[7] = 100 mg BID, Day 14, 48 h after first daily dose
[8] = 100 mg BID, Day 14, 72 h after first daily dose
[9] = 200 mg BID, Day 14, 0 h after first daily dose
[10] = 200 mg BID, Day 14, 6 h after first daily dose
[11] = 200 mg BID, Day 14, 8 h after first daily dose
[12] = 200 mg BID, Day 14, 12 h after first daily dose
[13] = 200 mg BID, Day 14, 16 h after first daily dose
[14] = 200 mg BID, Day 14, 24 h after first daily dose
[15] = 200 mg BID, Day 14, 48 h after first daily dose
[16] = 200 mg BID, Day 14, 72 h after first daily dose

## O=C([C@H](CO)c1ccccc1)N1CC2=C(C1)CN(S(=O)(=O)c1cnc3c(c1)OCCO3)C2 (single isomer, unassigned) [Compound 1]
HV MAD cohorts, Day 14
  maximum decrease in 2,3-DPG from baseline (median): 55%
All dose levels, 24 hours after first dose on day 1
  median reduction in the concentration of 2,3-DPG, relative to baseline: at least 25%
All dose levels, 24 hours after first dose on day 14
  median reduction in the concentration of 2,3-DPG, relative to baseline: at least 40%
HV SAD, all dose levels, 24 hours after a single dose
  median reduction of p50: 3-5 mmHg
100 mg BID, Day 1, 0 h after first daily dose
  Median Percentage Change in 2,3-DPG Levels: 0.0%
100 mg BID, Day 1, 6 h after first daily dose
  Median Percentage Change in 2,3-DPG Levels: −16.1%
100 mg BID, Day 1, 8 h after first daily dose
  Median Percentage Change in 2,3-DPG Levels: −12.1%
100 mg BID, Day 1, 12 h after first daily dose
  Median Percentage Change in 2,3-DPG Levels: −18.1%
100 mg BID, Day 1, 16 h after first daily dose
  Median Percentage Change in 2,3-DPG Levels: −18.4%
100 mg BID, Day 1, 24 h after first daily dose
  Median Percentage Change in 2,3-DPG Levels: −27.8%
[1]
  Median Percentage Change in 2,3-DPG Levels: −42.0%
  Median Percentage Change in ATP Levels (Day 14): 41.5%
[2]
  Median Percentage Change in 2,3-DPG Levels: −44.3%
  Median Percentage Change in ATP Levels (Day 14): 43.8%
[3]
  Median Percentage Change in 2,3-DPG Levels: −44.7%
  Median Percentage Change in ATP Levels (Day 14): 47.8%
[4]
  Median Percentage Change in 2,3-DPG Levels: −43.6%
  Median Percentage Change in ATP Levels (Day 14): 45.4%
[5]
  Median Percentage Change in 2,3-DPG Levels: −43.9%
  Median Percentage Change in ATP Levels (Day 14): 44.8%
[6]
  Median Percentage Change in 2,3-DPG Levels: −44.1%
  Median Percentage Change in ATP Levels (Day 14): 55.0%
[7]
  Median Percentage Change in 2,3-DPG Levels: −34.7%
  Median Percentage Change in ATP Levels (Day 14): 52.2%
[8]
  Median Percentage Change in 2,3-DPG Levels: −20.2%
  Median Percentage Change in ATP Levels (Day 14): 49.2%
200 mg BID for 14 days
  Mean Absolute Change in p50 (mmHg) (Day 14): −4.14 mmHg
200 mg BID, Day 1, 0 h after first daily dose
  Median Percentage Change in 2,3-DPG Levels: 0.0%
200 mg BID, Day 1, 6 h after first daily dose
  Median Percentage Change in 2,3-DPG Levels: −13.1%
200 mg BID, Day 1, 8 h after first daily dose
  Median Percentage Change in 2,3-DPG Levels: −22.3%
200 mg BID, Day 1, 12 h after first daily dose
  Median Percentage Change in 2,3-DPG Levels: −23.1%
200 mg BID, Day 1, 16 h after first daily dose
  Median Percentage Change in 2,3-DPG Levels: −33.9%
200 mg BID, Day 1, 24 h after first daily dose
  Median Percentage Change in 2,3-DPG Levels: −43.5%
[9]
  Median Percentage Change in 2,3-DPG Levels: −48.2%
  Median Percentage Change in ATP Levels (Day 14): 55.3%
[10]
  Median Percentage Change in 2,3-DPG Levels: −48.5%
  Median Percentage Change in ATP Levels (Day 14): 48.1%
[11]
  Median Percentage Change in 2,3-DPG Levels: −44.3%
  Median Percentage Change in ATP Levels (Day 14): 58.4%
[12]
  Median Percentage Change in 2,3-DPG Levels: −42.2%
  Median Percentage Change in ATP Levels (Day 14): 56.2%
[13]
  Median Percentage Change in 2,3-DPG Levels: −42.9%
  Median Percentage Change in ATP Levels (Day 14): 57.0%
[14]
  Median Percentage Change in 2,3-DPG Levels: −44.3%
  Median Percentage Change in ATP Levels (Day 14): 64.0%
[15]
  Median Percentage Change in 2,3-DPG Levels: −38.7%
  Median Percentage Change in ATP Levels (Day 14): 58.9%
[16]
  Median Percentage Change in 2,3-DPG Levels: −20.2%
  Median Percentage Change in ATP Levels (Day 14): 54.0%
300 mg BID for 14 days
  Mean Absolute Change in p50 (mmHg) (Day 14): −5.34 mmHg
300 mg BID, Day 1, 0 h after first daily dose
  Median Percentage Change in 2,3-DPG Levels: 0.0%
300 mg BID, Day 1, 6 h after first daily dose
  Median Percentage Change in 2,3-DPG Levels: −18.8%
300 mg BID, Day 1, 8 h after first daily dose
  Median Percentage Change in 2,3-DPG Levels: −23.8%
300 mg BID, Day 1, 12 h after first daily dose
  Median Percentage Change in 2,3-DPG Levels: −31.6%
